# Measured values from US20240024409A1, “N-f-MLF DERIVATIVES THAT INHIBIT FORMYL PEPTIDE RECEPTORS FOR THE TREATMENT OF DISEASE” (University of South Alabama, priority 2022, published 2024).
# How the values were obtained:
# [1] = system: Primary STAT3^mut bone marrow-derived mast cells (BMMC); assay: BMMC degranulation (LAMP-1 on the plasma membrane by flow cytometry); format: cell-based, mice; conditions: DNP-specific IgE then DNP; peptide added prior to DNP; varying concentrations
# Protocol: Primary bone marrow-derived mast cells (BMMC) were cultured from STAT3^mut mice in RPMI-1640 Medium (Thermo Fisher Scientific) containing 10% fetal bovine serum (FBS), interleukin-3 (IL-3) and stem cell factor (SCF). To induce degranulation, BMMC were incubated with dinitrophenyl (DNP)-specific IgE followed by addition of DNP to crosslink IgE. To test effects of fMLFF and fMLYF, different concentrations were administered prior to the addition of DNP. Degranulation was measured by the amount of lysosomal-associated membrane protein 1 (LAMP-1) on the plasma membrane by flow cytometry.
# Primary STAT3^mut BMMC were treated with varying concentrations of fMLFF and fMLYF (FIG. 3A and FIG. 3B). Data shown in FIG. 3B were summarized from 3 individual experiments; bars indicate means+SEM; **p<0.001; ****p<0.00001, 2-way ANOVA with Tukey's multiple comparison. Assays were performed independently with fMLFF and fMLYF; data shown are cumulative for experiments using fMLFF and fMLYF individually.
# [2] = system: circulating IgE levels; assay: IgE production in vivo (serum IgE by ELISA); parameters: species or system STAT3^mut mice; conditions: 2.5 mg/kg once per week for 3 weeks
# Protocol: Groups (n=4-6/group) were treated with fMLYF (2.5 mg/kg) or vehicle once per week for 3 weeks. Serum was collected to measure effects of peptide treatment on circulating IgE levels via ELISA (FIG. 1 and FIG. 5).
substance,measurement,setting,value
fMLFF,mast cell degranulation in vitro,[1],attenuated
same,IgE production in vivo,[2],attenuated
